Patent US11484539B2, “Compounds and their uses for alleviating menopause-associated symptoms” (Estetra SPRL, priority 2018, dated 2022)

Tested on: post-menopausal women
Assay: Weekly severity of moderate to severe VMS, dose-finding study
Format: in vivo
Description: To determine the Minimum Effective Dose (MED), firstly the selection criteria required that patients presented at least 7 moderate to severe VMS/day or at least 50 moderate to severe VMS/week in the week preceding randomization. Secondly, a placebo group was included in a double-blind fashion. Thirdly, the total patient number was such that statistical significance could be obtained between separate arms of the study. Fourthly, the absolute change from baseline in weekly frequency of moderate to severe VMS was taken into account. An analysis of covariance (ANCOVA) was performed based on the untransformed change in weekly frequency of moderate to severe VMS from baseline. Finally, the change in severity from baseline was evaluated. For this, the Severity Scoring System of VMS was documented by the subjects as follows: • a score of Mild (1) for a sensation of heat without sweating; • a score of Moderate (2) for a sensation of heat with sweating/the subject is able to continue activity; and • a score of Severe (3) for a sensation of heat with sweating/which causes cessation of activity.
In addition, a severity score of zero was attributed to the patients who have experienced a 100% VMS relief during a given week.
From these score records, the severity at baseline was calculated by taking into account only moderate and severe VMS, such that the total number of moderate VMS during the 7 days of the baseline week was multiplied by 2 and added to the total number of severe VMS during the 7 days of the baseline week multiplied by 3. This total was then divided by the total number of moderate and severe VMS during the baseline week.
The severity at weeks 4 and 12 was calculated using the following formula for each of these weeks: • the number of mild VMS during 7 days multiplied by 1; • the number of moderate VMS during 7 days multiplied by 2; • the number of severe VMS during 7 days multiplied by 3. and adding the 3 resulting numbers together before dividing this total by the total number of mild, moderate and severe VMS during the 7 days of the week.
This method was used to generate the data included in Example 1 further below, under section A. b) “VMS Severity”.
In order to better analyse the data recorded in this study, treatment groups have been compared using an ANCOVA (analysis of covariance) with respect to the change in severity of moderate to severe VMS from baseline to mild, moderate and severe VMS at week 4 and week 12 for each active treatment versus placebo. For women who experienced 100% VMS relief at week 4 and/or week 12, a value of zero was attributed. The ANCOVA model includes treatment (“trt1”) as a fixed effect and baseline (“base”) as a covariate. • b) Covariate significance

C[C@]12CC[C@@H]3c4ccc(O)cc4CC[C@H]3[C@@H]1[C@@H](O)[C@@H](O)[C@@H]2O [E4, 1,3,5 (10)-estratrien-3,15alpha,16alpha,17beta-tetrol]
LS adjusted mean change from baseline in weekly severity of moderate to severe VMS (2.5 mg E4, week 4): −0.3411
LS adjusted mean relative change from baseline in weekly severity of moderate to severe VMS (2.5 mg E4, week 4): −0.1453
LS adjusted mean change from baseline in weekly severity of moderate to severe VMS (2.5 mg E4, week 12): −0.6296
LS adjusted mean relative change from baseline in weekly severity of moderate to severe VMS (2.5 mg E4, week 12): −0.275
Mean change from baseline in weekly severity of moderate to severe VMS (2.5 mg E4 QD per os, week 1): −0.1542
Relative change (% from baseline) in weekly severity of moderate to severe VMS, mean (2.5 mg E4 QD per os, week 1): −7%
Mean change from baseline in weekly severity of moderate to severe VMS (2.5 mg E4 QD per os, week 2): −0.2112
Relative change (% from baseline) in weekly severity of moderate to severe VMS, mean (2.5 mg E4 QD per os, week 2): −9%
Mean change from baseline in weekly severity of moderate to severe VMS (2.5 mg E4 QD per os, week 3): −0.3246
Relative change (% from baseline) in weekly severity of moderate to severe VMS, mean (2.5 mg E4 QD per os, week 3): −14%
Mean change from baseline in weekly severity of moderate to severe VMS (2.5 mg E4 QD per os, week 4): −0.3373
Relative change (% from baseline) in weekly severity of moderate to severe VMS, mean (2.5 mg E4 QD per os, week 4): −15%
Mean change from baseline in weekly severity of moderate to severe VMS (2.5 mg E4 QD per os, week 5): −0.3984
Relative change (% from baseline) in weekly severity of moderate to severe VMS, mean (2.5 mg E4 QD per os, week 5): −17%
Mean change from baseline in weekly severity of moderate to severe VMS (2.5 mg E4 QD per os, week 6): −0.5014
Relative change (% from baseline) in weekly severity of moderate to severe VMS, mean (2.5 mg E4 QD per os, week 6): −22%
Mean change from baseline in weekly severity of moderate to severe VMS (2.5 mg E4 QD per os, week 7): −0.4562
Relative change (% from baseline) in weekly severity of moderate to severe VMS, mean (2.5 mg E4 QD per os, week 7): −20%
Mean change from baseline in weekly severity of moderate to severe VMS (2.5 mg E4 QD per os, week 8): −0.5359
Relative change (% from baseline) in weekly severity of moderate to severe VMS, mean (2.5 mg E4 QD per os, week 8): −24%
Mean change from baseline in weekly severity of moderate to severe VMS (2.5 mg E4 QD per os, week 9): −0.5465
Relative change (% from baseline) in weekly severity of moderate to severe VMS, mean (2.5 mg E4 QD per os, week 9): −24%
Mean change from baseline in weekly severity of moderate to severe VMS (2.5 mg E4 QD per os, week 10): −0.6052
Relative change (% from baseline) in weekly severity of moderate to severe VMS, mean (2.5 mg E4 QD per os, week 10): −26%
Mean change from baseline in weekly severity of moderate to severe VMS (2.5 mg E4 QD per os, week 11): −0.5564
Relative change (% from baseline) in weekly severity of moderate to severe VMS, mean (2.5 mg E4 QD per os, week 11): −25%
Mean change from baseline in weekly severity of moderate to severe VMS (2.5 mg E4 QD per os, week 12): −0.6279
Relative change (% from baseline) in weekly severity of moderate to severe VMS, mean (2.5 mg E4 QD per os, week 12): −28%
Difference with placebo, LS adjusted mean, absolute change in weekly severity of moderate to severe VMS (2.5 mg E4 vs placebo, week 4): −0.01329
Difference with placebo, LS adjusted mean, relative change in weekly severity of moderate to severe VMS (2.5 mg E4 vs placebo, week 4): −0.004358
Difference with placebo, LS adjusted mean, absolute change in weekly severity of moderate to severe VMS (2.5 mg E4 vs placebo, week 12): 0.02869
Difference with placebo, LS adjusted mean, relative change in weekly severity of moderate to severe VMS (2.5 mg E4 vs placebo, week 12): 0.004705
LS adjusted mean change from baseline in weekly severity of moderate to severe VMS (5 mg E4, week 4): −0.2386
LS adjusted mean relative change from baseline in weekly severity of moderate to severe VMS (5 mg E4, week 4): −0.09556
LS adjusted mean change from baseline in weekly severity of moderate to severe VMS (5 mg E4, week 12): −0.4026
LS adjusted mean relative change from baseline in weekly severity of moderate to severe VMS (5 mg E4, week 12): −0.1649
Mean change from baseline in weekly severity of moderate to severe VMS (5 mg E4 QD per os, week 1): −0.098
Relative change (% from baseline) in weekly severity of moderate to severe VMS, mean (5 mg E4 QD per os, week 1): −4%
Mean change from baseline in weekly severity of moderate to severe VMS (5 mg E4 QD per os, week 2): −0.1199
Relative change (% from baseline) in weekly severity of moderate to severe VMS, mean (5 mg E4 QD per os, week 2): −5%
Mean change from baseline in weekly severity of moderate to severe VMS (5 mg E4 QD per os, week 3): −0.1574
Relative change (% from baseline) in weekly severity of moderate to severe VMS, mean (5 mg E4 QD per os, week 3): −7%
Mean change from baseline in weekly severity of moderate to severe VMS (5 mg E4 QD per os, week 4): −0.2341
Relative change (% from baseline) in weekly severity of moderate to severe VMS, mean (5 mg E4 QD per os, week 4): −10%
Mean change from baseline in weekly severity of moderate to severe VMS (5 mg E4 QD per os, week 5): −0.1683
Relative change (% from baseline) in weekly severity of moderate to severe VMS, mean (5 mg E4 QD per os, week 5): −7%
Mean change from baseline in weekly severity of moderate to severe VMS (5 mg E4 QD per os, week 6): −0.3212
Relative change (% from baseline) in weekly severity of moderate to severe VMS, mean (5 mg E4 QD per os, week 6): −14%
Mean change from baseline in weekly severity of moderate to severe VMS (5 mg E4 QD per os, week 7): −0.2787
Relative change (% from baseline) in weekly severity of moderate to severe VMS, mean (5 mg E4 QD per os, week 7): −12%
Mean change from baseline in weekly severity of moderate to severe VMS (5 mg E4 QD per os, week 8): −0.3239
Relative change (% from baseline) in weekly severity of moderate to severe VMS, mean (5 mg E4 QD per os, week 8): −14%
Mean change from baseline in weekly severity of moderate to severe VMS (5 mg E4 QD per os, week 9): −0.3249
Relative change (% from baseline) in weekly severity of moderate to severe VMS, mean (5 mg E4 QD per os, week 9): −14%
Mean change from baseline in weekly severity of moderate to severe VMS (5 mg E4 QD per os, week 10): −0.3667
Relative change (% from baseline) in weekly severity of moderate to severe VMS, mean (5 mg E4 QD per os, week 10): −15%
Mean change from baseline in weekly severity of moderate to severe VMS (5 mg E4 QD per os, week 11): −0.4161
Relative change (% from baseline) in weekly severity of moderate to severe VMS, mean (5 mg E4 QD per os, week 11): −18%
Mean change from baseline in weekly severity of moderate to severe VMS (5 mg E4 QD per os, week 12): −0.4007
Relative change (% from baseline) in weekly severity of moderate to severe VMS, mean (5 mg E4 QD per os, week 12): −17%
Difference with placebo, LS adjusted mean, absolute change in weekly severity of moderate to severe VMS (5 mg E4 vs placebo, week 4): 0.08925
Difference with placebo, LS adjusted mean, relative change in weekly severity of moderate to severe VMS (5 mg E4 vs placebo, week 4): 0.04543
Difference with placebo, LS adjusted mean, absolute change in weekly severity of moderate to severe VMS (5 mg E4 vs placebo, week 12): 0.2557
